In PMC10041525, “New Dual Inhibitors of Bacterial Topoisomerases with Broad-Spectrum Antibacterial Activity and In Vivo Efficacy against Vancomycin-Intermediate Staphylococcus aureus” (Journal of Medicinal Chemistry, 2023):
“And” between values parts separate entries of the source, which are not always exact repeats. Equal entries are not always repeated. Where two headings read alike, the source gives them in different places.

How the values were obtained:
[1] = system: 3 sensitive and 7 MDR A. baumannii clinical isolates; experiment: MIC, Hungarian clinical isolates and controls (384-well); type: cell-based
[2] = system: S. aureus ATCC 700699 (VISA); type: in vivo, female CD-1 mice
Experimental: The neutropenic mouse thigh infection model study was performed by NeoSome Life Sciences, LLC (Lexington, MA, USA) according to NeoSome Institutional Animal Care and Use Committee (IACUC) policies and guidelines as well as NIH’s Office of Laboratory Animal Welfare (OLAW) standards.
Neutropenic mouse thigh infection experiments were performed on female CD-1 mice (Charles River Laboratories, USA). To induce neutropenia, mice received two doses of cyclophosphamide on days −4 and −1 with 150 and 100 mg/kg delivered intraperitoneally (IP), respectively. The inoculum of the testing strain, S. aureus ATCC 700699-P1 (VISA), was prepared from overnight agar plate cultures. To prepare bacterial inoculums, a portion of the plate was resuspended in sterile saline and adjusted to an OD of 0.12 at 625 nm. Next, the resulted bacterial suspension was further diluted to reach an infecting inoculum of 6.0 × 10^5 cfu per each mouse. Plate counts of the inoculum were also performed in each case to confirm the inoculum concentration, and the actual inoculum size was 7.25 × 10^5 cfu/mouse. Mice were inoculated with 100 μL of the prepared bacterial suspension via an intramuscular injection into the right rear thigh. […] The test agent was then dosed via IV administration, to ensure optimal distribution, at 2, 10, and 18 h post-infection. Beginning at 2 h, post-infection mice were dosed with either test article or positive control antibiotic. Mice receiving test agents were dosed intravenously at 10 mL/kg. Linezolid was delivered as a SC dose to ensure optimized exposure, distribution, and efficacy. Four animals were dosed per group. One group of four mice was euthanized at the initiation of therapy (t = 2 h) and cfus determined. All remaining mice were euthanized at 26 h post-infection. At termination, thighs were aseptically excised, weighed, and homogenized to a uniform consistency in 2 mL of sterile saline. The homogenate was serially diluted and plated on bacterial growth media. The cfus were enumerated after overnight incubation.

[3] = system: Enterococcus faecalis ATCC 29212; experiment: MIC broth microdilution (CLSI); type: cell-based, E. faecalis; settings: Enterococcus faecalis, ATCC29212; read-out: MIC
Experimental: (§1) MICs (Tables 1 and S1–S3) were determined with a standard serial broth microdilution technique according to Clinical and Laboratory Standards Institute (CLSI) guidelines.[45] Cation-adjusted Mueller Hinton broth 2 (MHBII) was used for bacterial growth under standard laboratory conditions and for antimicrobial susceptibility tests. MHBII broth was prepared by dissolving 22 g of MHBII powder [containing beef extract (3 g), acid hydrolysate of casein (17.5 g), and starch (1.5 g); Becton Dickinson and Co.] in 1 L of water. To prepare MHBII agar, 14 g of agar (Bacto; Molar Chemicals) was added to 1 L of broth.
(§2) Bacterial strains were inoculated onto MHBII agar plates and grown overnight at 37 °C. Next, three individual colonies from each strain were inoculated into 1 mL of MHBII medium and propagated at 37 °C overnight, with agitation at 250 rpm. For Enterococcus sp., the cells were plated in brain–heart infusion [(BHI) medium] agar plates, and BHI broth was used to determine the MICs. […] The highest final DMSO concentration in the experiments was 0.64% (in the case of the 64 μg/mL concentration of the inhibitor). Following the dilutions, each well was seeded with 5 × 10^4 bacterial cells (in 100 μL final volume). Each measurement was performed in three parallel replicates, and to avoid possible edge effects in the microwell plates, the outside rows (A, H) were filled with sterile medium. Following the inoculations, the plates were covered with the lids and wrapped in polyethylene plastic bags, to minimize evaporation but to allow O2 transfer. The plates were incubated at 37 °C under continuous shaking at 150 rpm for 18 h. After incubation, the OD600 of each well was measured using a microplate reader (Synergy 2; Biotek). The MICs were defined as the antibiotic concentrations which inhibited the growth of the bacterial cultures; that is, the drug concentration where the average OD600 increment of the three technical replicates was below 1.5-fold the background OD increment.

DNA gyrase from E. coli = biological target: T1, DNA gyrase from E. coli (Escherichia coli, UniProt P0AES6); experiment: supercoiling HTS plate assay; type: biochemical; settings: IC50 [nM] E. coli DNA gyrase
T1 construct: purchased Inspiralis
Experimental: (§3) All compounds were tested for their inhibitory activities against DNA gyrase and topo IV from E. coli in supercoiling and relaxation high-throughput plate assays, respectively. Our new series of inhibitors were then tested against a panel of Gram-positive and Gram-negative bacteria.
(§4) Seven concentrations of the inhibitors were used to determine IC50 values which were then calculated with GraphPad Prism 6.0 software. Three independent measurements were performed to determine IC50 values, and mean values are reported as the final result.

topo IV from E. coli = biological target: T2, topo IV from E. coli (Escherichia coli, UniProt P20083); experiment: relaxation HTS plate assay; type: biochemical; settings: IC50
T2 construct: purchased Inspiralis
T2 sequence (P0AFI2 whole entry): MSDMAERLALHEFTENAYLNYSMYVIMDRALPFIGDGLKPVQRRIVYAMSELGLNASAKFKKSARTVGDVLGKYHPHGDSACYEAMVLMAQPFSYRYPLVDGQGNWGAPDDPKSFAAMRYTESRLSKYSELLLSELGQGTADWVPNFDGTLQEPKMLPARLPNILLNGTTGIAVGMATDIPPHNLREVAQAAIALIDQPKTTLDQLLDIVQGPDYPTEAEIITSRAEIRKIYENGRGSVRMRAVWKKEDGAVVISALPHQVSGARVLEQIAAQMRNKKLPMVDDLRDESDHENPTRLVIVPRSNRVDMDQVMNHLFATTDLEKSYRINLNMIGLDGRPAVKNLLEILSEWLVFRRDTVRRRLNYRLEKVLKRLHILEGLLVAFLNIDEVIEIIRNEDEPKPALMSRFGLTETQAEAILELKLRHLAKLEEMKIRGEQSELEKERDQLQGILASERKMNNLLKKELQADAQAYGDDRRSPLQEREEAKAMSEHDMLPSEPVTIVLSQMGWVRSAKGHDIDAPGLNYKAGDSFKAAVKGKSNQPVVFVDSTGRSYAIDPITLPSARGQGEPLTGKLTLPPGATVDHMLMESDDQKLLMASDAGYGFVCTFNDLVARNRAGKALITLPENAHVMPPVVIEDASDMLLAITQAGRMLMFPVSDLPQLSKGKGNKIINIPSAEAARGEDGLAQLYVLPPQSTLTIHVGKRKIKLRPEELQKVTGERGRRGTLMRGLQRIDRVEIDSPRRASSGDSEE
T2 sequence (P20083 whole entry): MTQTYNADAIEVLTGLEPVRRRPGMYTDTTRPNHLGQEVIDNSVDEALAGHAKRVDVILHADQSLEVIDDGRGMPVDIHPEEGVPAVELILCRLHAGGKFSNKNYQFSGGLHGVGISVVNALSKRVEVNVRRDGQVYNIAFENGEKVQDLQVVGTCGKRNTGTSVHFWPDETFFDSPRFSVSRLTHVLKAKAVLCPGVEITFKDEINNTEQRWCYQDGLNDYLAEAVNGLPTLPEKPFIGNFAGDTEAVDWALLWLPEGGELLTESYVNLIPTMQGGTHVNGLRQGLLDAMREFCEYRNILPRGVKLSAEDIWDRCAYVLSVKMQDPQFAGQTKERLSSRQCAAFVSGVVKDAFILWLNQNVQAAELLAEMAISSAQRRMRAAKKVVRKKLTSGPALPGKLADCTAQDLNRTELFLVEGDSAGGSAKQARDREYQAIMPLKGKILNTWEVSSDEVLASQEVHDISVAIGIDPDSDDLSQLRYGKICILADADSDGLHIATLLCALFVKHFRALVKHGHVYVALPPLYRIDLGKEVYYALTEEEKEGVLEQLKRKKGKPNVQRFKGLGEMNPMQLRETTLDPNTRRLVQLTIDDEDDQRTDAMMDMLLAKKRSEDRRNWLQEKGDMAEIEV
Experimental: as §3, §4

P. aeruginosa ATCC 27853 = experiment: MIC broth microdilution (CLSI); type: cell-based; settings: Pseudomonas aeruginosa, ATCC27853; read-out: MIC
Experimental: as §1, §2

[4] = system: S. aureus (MRSA) ATCC 43300; experiment: MIC broth microdilution (CLSI); type: cell-based; settings: Staphylococcus aureus
Experimental: as §1, §2

E. coli ATCC 25922 = experiment: MIC broth microdilution (CLSI); type: cell-based; settings: Escherichia coli, ATCC25922; read-out: MIC
Experimental: as §1, §2

[5] = system: Enterobacter cloacae spp. cloacae ATCC 13047; experiment: MIC broth microdilution (CLSI); type: cell-based; settings: Enterobacter cloacae, ATCC13047; read-out: MIC
Experimental: as §1, §2

K. pneumoniae ATCC 10031 = experiment: MIC broth microdilution (CLSI); type: cell-based; settings: Klebsiella pneumoniae, ATCC10031; read-out: MIC
Experimental: as §1, §2

A. baumannii ATCC 17978 = experiment: MIC broth microdilution (CLSI); type: cell-based; settings: Acinetobacter baumannii, ATCC17978
Experimental: as §1, with “Cation-adjusted” for “MICs (Tables 1 and S1–S3) were determined with a standard serial broth microdilution technique according to Clinical and Laboratory Standards Institute (CLSI) guidelines.[45] Cation-adjusted”
(§5) Bacterial strains were inoculated onto MHBII agar plates and grown overnight at 37 °C. Next, three individual colonies from each strain were inoculated into 1 mL of MHBII medium and propagated at 37 °C overnight, with agitation at 250 rpm. For Enterococcus sp., the cells were plated in brain–heart infusion [(BHI) medium] agar plates, and BHI broth was used to determine the MICs. […] Following the dilutions, each well was seeded with 5 × 10^4 bacterial cells (in 100 μL final volume). Each measurement was performed in three parallel replicates, and to avoid possible edge effects in the microwell plates, the outside rows (A, H) were filled with sterile medium. Following the inoculations, the plates were covered with the lids and wrapped in polyethylene plastic bags, to minimize evaporation but to allow O2 transfer. […] After incubation, the OD600 of each well was measured using a microplate reader (Synergy 2; Biotek).

S. aureus ATCC 29213 = experiment: MIC broth microdilution (CLSI); type: cell-based; settings: Staphylococcus aureus, ATCC29213
Experimental: as §1, with “Cation-adjusted” for “MICs (Tables 1 and S1–S3) were determined with a standard serial broth microdilution technique according to Clinical and Laboratory Standards Institute (CLSI) guidelines.[45] Cation-adjusted”
as §5

[6] = system: Chinese hamster ovary K1 cells; experiment: in vitro micronucleus test; settings: without S9, 1 µM

Compound: trimethoprim/sulfamethoxazole
- Cumulative % at MIC ([1]; n=10, MIC […] µg/mL): 20%
- Cumulative % at MIC ([1]; n=10, MIC 32 µg/mL): 70%
- Cumulative % at MIC ([1]; n=10, MIC 64 µg/mL): 100%

Compound: CC(=O)NC[C@H]1CN(c2ccc(N3CCOCC3)c(F)c2)C(=O)O1 [linezolid]
- Change in log10CFU/gr of thigh from 2 hour control ([2]; 50 mg/kg BID/SC): -0.61
- Average log10CFU/gr of thigh ([2]; 50 mg/kg BID/SC, 26 h): 5.69
- reduction compared to 2 hour infection controls ([2]; 50 mg/kg SC (BID)): 0.61 log10 cfu
- reduction compared to 26 hour infection controls ([2]; 50 mg/kg SC (BID)): 2.41 log10 cfu
- CFU/ g of thigh, single animals ([2]; linezolid group): 7.27E+05 and 7.86E+05 and 5.42E+05 and 1.84E+05
- log CFU, single animals ([2]; linezolid group): 5.86 and 5.90 and 5.73 and 5.26

Compound: COCCCNc1cc(C(=O)O)cc2sc(NC(=O)c3[nH]c(C)c(Cl)c3Cl)nc12.N [8c, 2-(3,4-Dichloro-5-methyl-1H-pyrrole-2-carboxamido)-4-((3-methoxypropyl)amino)benzo[d]thiazole-6-carboxylic Acid]
- MIC [3]: > 0.0312 µg/mL
- IC50 (DNA gyrase from E. coli): 15 ± 5 nM
- IC50 (topo IV from E. coli): 190 ± 6 nM
- MIC (P. aeruginosa ATCC 27853): 8 µg/mL
- MIC ([4]; read-out: MIC): < 0.0312 µg/mL
- MIC ([4]; read-out: MIC [µg/mL](S. aureus MRSA ATCC4330)): < 0.0312 µg/mL
- MIC (E. coli ATCC 25922): 8 µg/mL
- MIC [5]: > 64 µg/mL
- MIC (K. pneumoniae ATCC 10031): 2 µg/mL
- MIC (A. baumannii ATCC 17978; read-out: MIC): 2 µg/mL
- MIC (A. baumannii ATCC 17978; read-out: MIC [µg/mL] (A. baumannii ATCC 17978)): 2 µg/mL
- MIC (S. aureus ATCC 29213; read-out: MIC): < 0.0312 µg/mL
- MIC (S. aureus ATCC 29213; read-out: MIC [µg/mL](S. aureus ATCC 29213)): < 0.0312 µg/mL

Compound: CO[C@@]12[C@H](COC(N)=O)C3=C(C(=O)C(C)=C(N)C3=O)N1C[C@@H]1N[C@@H]12 [Mitomycin C]
- No. binucleate cells [6]: 920

Compound: NC[C@H]1O[C@H](O[C@H]2[C@H](O)[C@@H](O[C@H]3O[C@H](CO)[C@@H](O)[C@H](N)[C@H]3O)[C@H](N)C[C@@H]2N)[C@H](N)C[C@@H]1O [Tobramycin, tobramycin]
- Cumulative % at MIC ([1]; n=10, MIC 1 µg/mL): 10%
- Cumulative % at MIC ([1]; n=10, MIC 2 µg/mL): 20%
- Cumulative % at MIC ([1]; n=10, MIC […] µg/mL): 70%
- Cumulative % at MIC ([1]; n=10, MIC 256 µg/mL): 100%
- Cumulative % at MIC ([1]; n=10, MIC […] µg/mL): 60%

Compound: C[C@@H](O)[C@H]1C(=O)N2C(C(=O)O)=C(S[C@@H]3CN[C@H](CNS(N)(=O)=O)C3)[C@H](C)[C@H]12 [Doripenem, doripenem]
- Cumulative % at MIC ([1]; n=10, MIC 0.0625 µg/mL): 10%
- Cumulative % at MIC ([1]; n=10, MIC 2 µg/mL): 30%
- Cumulative % at MIC ([1]; n=10, MIC 128 µg/mL): 60%
- Cumulative % at MIC ([1]; n=10, MIC 256 µg/mL): 100%
- Cumulative % at MIC ([1]; n=10, MIC […]): 20%

Compound: imipenem/relebactame
- Cumulative % at MIC ([1]; n=10, MIC 0.5 µg/mL): 20%
- Cumulative % at MIC ([1]; n=10, MIC 2 µg/mL): 30%
- Cumulative % at MIC ([1]; n=10, MIC 64 µg/mL): 70%
- Cumulative % at MIC ([1]; n=10, MIC 128 µg/mL): 90%
- Cumulative % at MIC ([1]; n=10, MIC 256 µg/mL): 100%

Compound: NCC[C@H](O)C(=O)N[C@@H]1C[C@H](N)[C@@H](O[C@H]2O[C@H](CN)[C@@H](O)[C@H](O)[C@H]2O)[C@H](O)[C@H]1O[C@H]1O[C@H](CO)[C@@H](O)[C@H](N)[C@H]1O [Amikacin, amikacin]
- Cumulative % at MIC ([1]; n=10, MIC 2 µg/mL): 10%
- Cumulative % at MIC ([1]; n=10, MIC 256 µg/mL): 100%

Compound: colistin
- Cumulative % at MIC [1]: 50% and 70% and 100%
- MIC inhibiting all strains ([1]; all 10 isolates): 4 µg/mL
